For data set [1], the system named is mice (tonic, extensor spasm of the lower limbs). The data set can be described thus: Maximum electroshock (MES), anticonvulsive activity. The settings on record: Mus musculus, po, 1 h; 20 mg/kg p.o., one hour after administration; corneal electrode 20 mA, 0.2 sec; absence of tonic extensor spasm = protection. The data set is classed as in vivo, CFLP (LATI) mice. Here is the method: The pharmaceutical activity of the new compounds according to the invention was tested by conventional animal tests. Tests were performed on CFLP (LATI) mice of both sexes weighing 18 to 22 g. each, in groups of 10. Test compounds were suspended in a 5% aqueous "Tween 80" solution and the suspension was administered orally, through a probe. When testing anticonvulsive activity 20 mg./kg. doses, while in the tests concerning neurotoxic activity 80 mg/kg. doses were employed. The induced effect was measured one hour after administration by the following methods: (a) Maximum electroshock (MES): According to the method of E. A. Swinyard et al. [J. Pharmacol. 106, 319 (1952)] test animals were shocked by a corneal electrode (20 mA, 0.2 sec.). On the stimulation 100% of the control animals reacted by a tonic, extensor spasm of the lower limbs. Absence of this phenomena was considered a protection due to the treatment.

The subject of data set [2] is mice (pentetrazole-induced clonic and tonic, extensor spasm). The data set can be described thus: Inhibition of spasm induced by pentetrazole (PTT). Conditions: Mus musculus, po, 1 h, 20 mg/kg p.o., 125 mg/kg pentetrazole s.c., one hour. The data set is classed as in vivo, CFLP (LATI) mice. How it is done:
The pharmaceutical activity of the new compounds according to the invention was tested by conventional animal tests. Tests were performed on CFLP (LATI) mice of both sexes weighing 18 to 22 g. each, in groups of 10. Test compounds were suspended in a 5% aqueous "Tween 80" solution and the suspension was administered orally, through a probe. When testing anticonvulsive activity 20 mg./kg. doses, while in the tests concerning neurotoxic activity 80 mg/kg. doses were employed. The induced effect was measured one hour after administration by the following methods: (b) inhibition of spasm induced by pentetrazole (PTT) According to the method of Cr. N. Everett and R. K. Richards [J. Pharmacol. Exp. Therap. 81, 402 (1944)] 125 mg./kg. of pentatrazole (pentamethylene tetrazole) were administrated to the animals subcutaneously. One hour after administration the animals were observed. Absence of the clonic spasm (Kl) and the tonic, extensor spasm of lower limbs (TE) was considered a protection due to the administration of test compounds.

Data set [3] has as its system mice (muscle coordination). The data set can be described thus: Neurotoxic activity: muscle coordination (RR) on rotating rod. The data set is classed as in vivo, CFLP (LATI) mice. Conditions: 80 mg/kg p.o., one hour after administration; animals falling from rotating rod within 120 seconds, percentage of control animals. How it is done: (§1) The pharmaceutical activity of the new compounds according to the invention was tested by conventional animal tests. Tests were performed on CFLP (LATI) mice of both sexes weighing 18 to 22 g. each, in groups of 10. Test compounds were suspended in a 5% aqueous "Tween 80" solution and the suspension was administered orally, through a probe. When testing anticonvulsive activity 20 mg./kg. doses, while in the tests concerning neurotoxic activity 80 mg/kg. doses were employed. The induced effect was measured one hour after administration by the following methods:
Muscle coordination (RR) on mice
Change of the coordinated muscular movement was tested according to W. J. Kinnard and C. F. Carr [Brit. J. Pharmacol, 121, 354 (1957)], on a rotating rod (diameter: 20 mm., frequency: 12/min.). Normal trained animals are able to remain on the rotating rod for about 120 seconds.

The next data set deals with mice. The data set can be described thus: Acute toxicity (LD50). The data set is classed as in vivo. The settings on record: p.o., single doses, evaluation after 14 days, probit analysis. Here is the method:
as §1
Toxicity of the compounds was examined by administration of various single doses. Evaluation was made 14 days after administration. The LD50 -values were calculated on the basis of the number of animals that died in 14 days by probite analysis, by means of a TPA/101 computer.

Where [4] appears, read: absence of clonic spasm, read-out: PTT Cl.
[5] abbreviates: absence of tonic, extensor spasm of lower limbs, read-out: PTT TE.

Where two headings read alike, the source gives them in different places.

For `CCC1(c2ccccc2)NC(=O)N(C)C1=O` (centres unmarked) [3-methyl-5-ethyl-5-phenylhydantoine, reference compound], the figures for the responders at 20 mg/kg in data set [1], in data set [2] (setting [4]) and in data set [2] (setting [5]) were 10%, 0% and 50%, respectively. Moreover, the “RR (muscle incoordination)” value in data set [3] turned out to be 50%.
For `CCN1C(=O)CON(C(C)=O)C1c1ccccc1` (centres unmarked) [Example 4, 2-Acetyl-3-phenyl-4-ethyl-tetrahydro-1,2,4-oxadiazin-5-one], the responders at 20 mg/kg in data set [1] worked out at 0%; in data set [2] (setting [4]) it was 0%; in data set [2] (setting [5]) it was 20%. Besides, the “RR (muscle incoordination)” value in data set [3] was 20%.
`CC(=O)N1OCC(=O)N(CO)C1c1ccccc1` (centres unmarked) [Example 5, 2-Acetyl-3-phenyl-4-hydroxymethyl-tetrahydro-1,2,4-oxadiazin-5-one]: the responders at 20 mg/kg amounted to 60% in data set [1], 0% in data set [2] (setting [4]) and 40% in data set [2] (setting [5]). The “RR (muscle incoordination)” value in data set [3] was 20%.
As for `CC(=O)OCN1C(=O)CON(C(C)=O)C1c1ccccc1` (centres unmarked) [Example 6, 2-Acetyl-3-phenyl-4-acetoxymethyl-tetrahydro-1,2,4-oxadiazin-5-one], the responders at 20 mg/kg was 70% in data set [1], 0% in data set [2] (setting [4]) and 60% in data set [2] (setting [5]). Further, the “RR (muscle incoordination)” value in data set [3] came out at 40%.
For `CC(=O)N1OCC(=O)N(CCl)C1c1ccccc1` (centres unmarked) [Example 7, 2-Acetyl-3-phenyl-4-chloromethyl-tetrahydro-1,2,4-oxadiazin-5-one], the responders at 20 mg/kg was found to be 40% in data set [1], 0% in data set [2] (setting [4]) and 0% in data set [2] (setting [5]). Also, in data set [3], the “RR (muscle incoordination)” value is reported as 40%.
In the case of `CC(=O)N1OCC(=O)N(C)C1c1ccccc1` (centres unmarked) [Example 10], the responders at 20 mg/kg in data set [1] amounted to 40%; in data set [2] (setting [4]) it was 0%; in data set [2] (setting [5]), 20%. In addition, the “RR (muscle incoordination)” value in data set [3] was found to be 20%.
Turning to `CCCCCCN1C(=O)CON(C(C)=O)C1c1ccccc1` (centres unmarked) [Example 14], the responders at 20 mg/kg in data set [1] amounted to 0%; in data set [2] (setting [4]), 0%; in data set [2] (setting [5]) it was 40%. Further, the “RR (muscle incoordination)” value in data set [3] is reported as 0%.
Consider `CC(=O)N1OCC(=O)N(COC(=O)c2ccccc2)C1c1ccccc1` (centres unmarked) [Example 18], for which the responders at 20 mg/kg in data set [1] is 40%; in data set [2] (setting [4]), 0%; in data set [2] (setting [5]) it was 70%. In data set [3], the “RR (muscle incoordination)” value is on record as 40%.
Regarding `COc1cc(C(=O)OCN2C(=O)CON(C(C)=O)C2c2ccccc2)cc(OC)c1OC` (centres unmarked) [Example 19], the responders at 20 mg/kg is 30% in data set [1], 0% in data set [2] (setting [4]) and 0% in data set [2] (setting [5]). The “RR (muscle incoordination)” value in data set [3] is 0%.
A word on the LD50: it is the dose expected to kill half of the subjects tested. Read a low LD50 as greater toxicity. `O=C1NC(=O)C(c2ccccc2)(c2ccccc2)N1` [diphenylhydantoine, reference compound]: the responders at 20 mg/kg in data set [1] is 90%; in data set [2] (setting [4]), 0%; in data set [2] (setting [5]), 80%. The “RR (muscle incoordination)” value in data set [3] amounted to 70%. In addition, in the data set on mice, the LD50 came to 279 mg/kg.

Values taken from patent publication US4371534A, “N4-Substituted tetrahydro-1,2,4-oxadiazin-5-one derivatives having anticonvulsive activity and pharmaceutical compositions containing them” (Richter Gedeon Vegyeszeti Gyar RT., priority 1980, dated 1983).
